Molecules are shown by their SMILES. Calls of active or inactive are those of the source. The rule behind the calls is not given here.

The test system of data set [1] is Periplaneta americana. In words: Insecticidal activity against adult form of Periplaneta americana (American cockroach) assessed as concentration required for neuroblock in excised central nerve cord. It is filed as functional.
Data set [2] deals with Periplaneta americana. Nature of the data set: Insecticidal activity against adult form of Periplaneta americana (American cockroach) assessed as paralysis compound injected into abdominal region measured after 24 hr. It is filed as functional.
Data set [3] deals with Periplaneta americana. Nature of the data set: Insecticidal activity against adult form of Periplaneta americana (American cockroach) assessed as paralysis at 250 nmol injected into abdominal region measured after 1 to 32 hr. It is filed as functional, organism-based.
The test system of data set [4] is Periplaneta americana. In words: Insecticidal activity against adult form of Periplaneta americana (American cockroach) assessed as paralysis at 8.4 nmol injected into abdominal region measured after 32 hr. It is filed as functional, organism-based.
Data set [5] relates to Periplaneta americana. In words: Insecticidal activity against adult form of Periplaneta americana (American cockroach) assessed as paralysis at 8.4 nmol injected into abdominal region measured after 2 hr. It is filed as functional, organism-based.
For data set [6], the system named is Periplaneta americana. In words: Insecticidal activity against adult form of Periplaneta americana (American cockroach) assessed as paralysis at 8.4 nmol stored at 4 degC for 10 days injected into abdominal region measured after 1 hr. It is filed as functional, organism-based.
The test system of data set [7] is Periplaneta americana. Nature of the data set: Insecticidal activity against adult form of Periplaneta americana (American cockroach) assessed as paralysis at 8.4 nmol stored at 4 degC for 10 days injected into abdominal region measured after 2 hr. It is filed as functional, organism-based.
The subject of data set [8] is Periplaneta americana. Nature of the data set: Insecticidal activity against adult form of Periplaneta americana (American cockroach) assessed as paralysis at 8.4 nmol injected into abdominal region measured after 13 hr. It is filed as functional, organism-based.
For data set [9], the system named is Periplaneta americana. In words: Ratio of imidacloprid efficacy to compound efficacy adult form of Periplaneta americana (American cockroach) assessed as concentration required for neuroblock in excised central nerve cord. It is filed as functional.
Data set [10] deals with Periplaneta americana. Nature of the data set: Insecticidal activity against adult form of Periplaneta americana (American cockroach) assessed as paralysis at 8.4 nmol injected into abdominal region measured after 3 hr. It is filed as functional, organism-based.
Data set [11] is described as follows: Lipophilicity, log P of the compound. It is filed as physicochemical. As to conditions: octanol/water.
Data set [12] concerns Periplaneta americana. Nature of the data set: Ratio of imidacloprid MLD to compound MLD for adult form of Periplaneta americana (American cockroach) assessed as paralysis compound injected into abdominal region measured after 24 hr. It is filed as functional.
Data set [13] relates to Periplaneta americana. Nature of the data set: Insecticidal activity against adult form of Periplaneta americana (American cockroach) assessed as paralysis at 8.4 nmol stored at 4 degC for 10 days injected into abdominal region measured after 3 hr. It is filed as functional, organism-based.
Data set [14] has as its system Periplaneta americana. Nature of the data set: Insecticidal activity against adult form of Periplaneta americana (American cockroach) assessed as paralysis at 8.4 nmol injected into abdominal region measured after 8 hr. It is filed as functional, organism-based.
The subject of data set [15] is Periplaneta americana. In words: Insecticidal activity against adult form of Periplaneta americana (American cockroach) assessed as paralysis at 8.4 nmol injected into abdominal region measured after 24 hr. It is filed as functional, organism-based.
Data set [16] relates to Periplaneta americana. In words: Insecticidal activity against adult form of Periplaneta americana (American cockroach) assessed as paralysis at 8.4 nmol injected into abdominal region measured after 1 hr. It is filed as functional, organism-based.
Data set [17] has as its system Periplaneta americana. Nature of the data set: Insecticidal activity against adult form of Periplaneta americana (American cockroach) assessed as paralysis at 19 nmol injected into abdominal region measured after 32 hr. It is filed as functional, organism-based.
The test system of another data set is Myzus persicae. Nature of the data set: Ratio of imidacloprid efficacy to compound efficacy for po dosed Myzus persicae (green peach aphid). It is filed as functional.
The test system of data set [18] is Periplaneta americana. In words: Insecticidal activity against adult form of Periplaneta americana (American cockroach) assessed as paralysis at 19 nmol injected into abdominal region measured after 1 hr. It is filed as functional, organism-based.
Data set [19] has as its system Periplaneta americana. Nature of the data set: Insecticidal activity against adult form of Periplaneta americana (American cockroach) assessed as paralysis at 19 nmol injected into abdominal region measured after 3 hr. It is filed as functional, organism-based.
For data set [20], the system named is Periplaneta americana. Nature of the data set: Insecticidal activity against adult form of Periplaneta americana (American cockroach) assessed as paralysis at 19 nmol injected into abdominal region measured after 2 hr. It is filed as functional, organism-based.
For data set [21], the system named is Periplaneta americana. In words: Insecticidal activity against adult form of Periplaneta americana (American cockroach) assessed as paralysis at 19 nmol injected into abdominal region measured after 8 hr. It is filed as functional, organism-based.
Data set [22] deals with Periplaneta americana. In words: Insecticidal activity against adult form of Periplaneta americana (American cockroach) assessed as paralysis at 19 nmol injected into abdominal region measured after 24 hr. It is filed as functional, organism-based.
For data set [23], the system named is Periplaneta americana. In words: Insecticidal activity against adult form of Periplaneta americana (American cockroach) assessed as paralysis at 19 nmol injected into abdominal region measured after 13 hr. It is filed as functional, organism-based.
In the next data set the test system is Aphis gossypii. In words: Ratio of imidacloprid efficacy to compound efficacy for po dosed Aphis gossypii (cotton aphid). It is filed as functional.
Data set [24] has as its target T1, Nicotinic acetylcholine receptor alpha 5 subunit (Musca domestica) (UniProt A9XFY4).
T1 sequence (whole entry): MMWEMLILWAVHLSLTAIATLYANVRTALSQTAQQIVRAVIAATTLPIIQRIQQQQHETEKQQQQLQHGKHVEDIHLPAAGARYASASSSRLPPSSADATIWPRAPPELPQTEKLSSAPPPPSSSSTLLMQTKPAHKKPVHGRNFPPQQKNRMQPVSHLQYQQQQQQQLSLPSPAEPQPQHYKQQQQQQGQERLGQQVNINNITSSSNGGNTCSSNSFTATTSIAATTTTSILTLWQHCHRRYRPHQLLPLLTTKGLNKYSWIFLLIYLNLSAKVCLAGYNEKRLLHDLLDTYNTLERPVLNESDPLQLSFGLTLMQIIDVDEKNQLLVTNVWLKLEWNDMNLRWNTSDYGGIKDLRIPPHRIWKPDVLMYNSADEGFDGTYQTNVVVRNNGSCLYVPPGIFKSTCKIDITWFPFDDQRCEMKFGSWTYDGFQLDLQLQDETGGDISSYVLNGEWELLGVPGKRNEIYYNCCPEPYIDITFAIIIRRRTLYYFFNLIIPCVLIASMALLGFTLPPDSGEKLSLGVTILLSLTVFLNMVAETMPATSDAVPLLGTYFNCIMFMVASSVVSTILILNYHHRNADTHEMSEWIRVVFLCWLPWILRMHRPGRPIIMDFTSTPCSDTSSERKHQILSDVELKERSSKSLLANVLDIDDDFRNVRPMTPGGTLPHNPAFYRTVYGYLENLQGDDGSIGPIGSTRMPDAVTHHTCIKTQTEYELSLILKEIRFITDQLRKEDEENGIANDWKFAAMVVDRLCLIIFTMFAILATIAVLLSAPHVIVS
Nature of the data set: Binding affinity to nicotinic acetylcholine receptor in Musca domestica (house fly) head membrane relative to imidacloprid.

The test system of another data set is Bemisia tabaci. Nature of the data set: Ratio of imidacloprid efficacy to compound efficacy for po dosed Bemisia tabaci (sweet potato whitefly). It is filed as functional.
The subject of data set [25] is Periplaneta americana. Nature of the data set: Insecticidal activity against adult form of Periplaneta americana (American cockroach) assessed as paralysis at 1.1 nmol injected into abdominal region measured after 2 hr. It is filed as functional, organism-based.
The test system of data set [26] is Periplaneta americana. In words: Insecticidal activity against adult form of Periplaneta americana (American cockroach) assessed as paralysis at 1.1 nmol injected into abdominal region measured after 13 hr. It is filed as functional, organism-based.
Data set [27] relates to Periplaneta americana. In words: Insecticidal activity against adult form of Periplaneta americana (American cockroach) assessed as paralysis at 1.1 nmol injected into abdominal region measured after 1 hr. It is filed as functional, organism-based.
Data set [28] concerns Periplaneta americana. In words: Insecticidal activity against adult form of Periplaneta americana (American cockroach) assessed as paralysis at 1.1 nmol injected into abdominal region measured after 8 hr. It is filed as functional, organism-based.
The test system of data set [29] is Periplaneta americana. Nature of the data set: Insecticidal activity against adult form of Periplaneta americana (American cockroach) assessed as paralysis at 1.1 nmol injected into abdominal region measured after 3 hr. It is filed as functional, organism-based.
The test system of data set [30] is Periplaneta americana. In words: Insecticidal activity against adult form of Periplaneta americana (American cockroach) assessed as paralysis at 1.1 nmol injected into abdominal region measured after 24 hr. It is filed as functional, organism-based.
In data set [31] the test system is Periplaneta americana. In words: Insecticidal activity against adult form of Periplaneta americana (American cockroach) assessed as paralysis at 1.1 nmol injected into abdominal region measured after 32 hr. It is filed as functional, organism-based.
Data set [32] in a line: Half life in Apis mellifera (honey bee). It is filed as ADME, organism-based. The conditions noted are these: in vivo.

Consider `O=[N+]([O-])/N=C1\NC(O)C(O)N1Cc1ccc(Cl)nc1` (centres undefined) [4,5-DIHYDROXYIMIDACLOPRID], for which the Activity in the data set with Periplaneta americana [1] is above 370 µM. In addition, in the data set with Periplaneta americana [2], the MLD is above 250 nmol. Also, in the data set on Periplaneta americana [3], the result was inactive.

Usually logP stands for a log measure of how a compound divides between an organic and an aqueous phase. High values mean a more lipophilic compound, low ones a more hydrophilic compound. As for `O=[N+]([O-])/N=C1\NCC(O)N1Cc1ccc(Cl)nc1` (centres undefined) [5-HYDROXYIMIDACLOPRID], the result in the data set with Periplaneta americana [4] and with Periplaneta americana [16] was inactive. In addition, the outcome in the data set on Periplaneta americana [5], in the data set with Periplaneta americana [6], with Periplaneta americana [7], in the data set on Periplaneta americana [8], with Periplaneta americana [10] and with Periplaneta americana [13] was Active. The result with Periplaneta americana [14] and in the data set on Periplaneta americana [15] was Active. Further, the Activity in the data set with Periplaneta americana [1] stood at 150 µM. Moreover, the MLD in the data set on Periplaneta americana [2] was found to be 11 nmol. The Ratio in the data set on Periplaneta americana [9] is 20; in the data set on Periplaneta americana [12], 10. For the same molecule, the logP in data set [11] came out at 8.

In the case of `O=[N+]([O-])Nc1nccn1Cc1ccc(Cl)nc1` [DEHYDROIMIDACLOPRID], the result in the data set with Periplaneta americana [17], with Periplaneta americana [18], in the data set with Periplaneta americana [19], in the data set with Periplaneta americana [20], in the data set with Periplaneta americana [21] and in the data set on Periplaneta americana [22] was Active. Also, the outcome with Periplaneta americana [23] was Active. Also, the Ratio with Myzus persicae is above 10; in the data set with Periplaneta americana [9], 20; with Periplaneta americana [12] it was 10; in the data set with Aphis gossypii it was above 10; in data set [24] it was 3; in the data set on Bemisia tabaci it was above 10. In addition, the Activity in the data set on Periplaneta americana [1] was 49 µM. Besides, in the data set with Periplaneta americana [2], the MLD was determined as 19 nmol. Besides, the logP in data set [11] stood at 0.45.

As to `O=[N+]([O-])/N=C1\NCCN1Cc1ccc(Cl)nc1` [IMIDACLOPRID], the result in the data set on Periplaneta americana [25], in the data set on Periplaneta americana [26], in the data set on Periplaneta americana [27], in the data set on Periplaneta americana [28], with Periplaneta americana [29] and in the data set on Periplaneta americana [30] was Active. The Activity in the data set with Periplaneta americana [1] amounted to 2.3 µM. The MLD in the data set with Periplaneta americana [2] was found to be 1.1 nmol. Also, the outcome in the data set on Periplaneta americana [31] was inactive.

As a reminder, the half-life is the time in which the quantity being followed falls by half. Low readings indicate fast loss, high ones slow loss. Turning to `O=[N+]([O-])NC1=NCCN1Cc1ccc(Cl)nc1` [IMIDACLOPRID], the half-life in data set [32] was 4.5 h.

(Values after ChEMBL document CHEMBL3045719, “Insecticidal and Neuroblocking Activities toward American Cockroach (Periplaneta americana L.) of Imidacloprid Metabolites, 5-Hydroxy-, 4,5-Dihydroxy- and 4,5-Dehydroimidacloprid” (J Pestic Sci, 2004).)
